Source: patent US5358947A, “Angiotensin II receptor blocking 2,3-substituted pyrazolo[1,5-a]-1,3,5-triazin-4(3H)-ones” (American Cyanamid Company, priority 1993, dated 1994)
Counter-ions that a name gives are not always drawn.

Target: T1, Angiotensin II Receptor (Bos taurus, UniProt P25104)
T1 construct: The brownish tissue forming the adrenal cortex is scraped off and finely minced with scissors before homogenization; tissue local slaughter house (Maxwell-Cohen); host or cells: beef adrenal cortex, microsomal membranes (100,000×g pellet)
T1 sequence (P25104 1-359): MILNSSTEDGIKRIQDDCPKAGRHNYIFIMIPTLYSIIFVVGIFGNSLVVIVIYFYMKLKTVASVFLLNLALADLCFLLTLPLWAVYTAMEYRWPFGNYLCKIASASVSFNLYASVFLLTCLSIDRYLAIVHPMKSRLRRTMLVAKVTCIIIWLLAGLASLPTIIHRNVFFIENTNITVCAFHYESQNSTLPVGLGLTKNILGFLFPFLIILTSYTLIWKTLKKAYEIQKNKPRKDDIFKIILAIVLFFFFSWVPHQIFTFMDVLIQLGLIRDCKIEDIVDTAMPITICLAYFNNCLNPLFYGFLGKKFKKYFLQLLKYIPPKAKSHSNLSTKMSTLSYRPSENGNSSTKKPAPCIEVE
Test: Angiotensin II receptor binding assay ([125I](Sar1,Ile8)AngII displacement, beef adrenal cortex membranes)
Settings: 60 minutes, room temperature
Description: Beef adrenals are obtained from a local slaughter house (Maxwell-Cohen). [^125 I](Sar^1,Ile^8)AngII, S.A. 2200 Ci/mmole, is purchased from Dupont (NEN®, Boston, Mass.). all unlabeled AngII analogs, Dimethylsulfoxide (DMSO), nucleotides, bovine serum albumin (BSA) are purchased from Sigma Chemical Co , St Louis, Mo. U.S.A.
Approximately sixteen (16) to twenty (20) beef adrenal glands are processed as follows: fresh adrenal glands received on crushed ice are cleaned of fatty tissues and the tough membranes encapsulating the glands are removed and discarded. The brownish tissue forming the adrenal cortex is scraped off and finely minced with scissors before homogenization. Care is taken to avoid contamination with medullary tissue during dissection. The scraped cortices are suspended in twenty volumes of an ice-cold buffer medium consisting of 10 mM Tris.HCl (pH 7.4 at 22° C.) and containing 1.0 mM EDTA and 0.2M sucrose. Unless otherwise indicated, all subsequent operations are done at 4° C. The tissue is homogenized in a glass homogenizer with a motor driven teflon pestle with a clearance of 1.0 mm. The homogenate is centrifuged first at low speed (3,000×g) for 10 minutes. The resulting pellet is discarded and the supernatant fluid recentrifuged at 10,000×g of 15 minutes to give a P2 pellet. This P2 pellet is discarded and the liquid phase is carefully decanted off in clean centrifuge tubes and recentrifuged at high speed (100,000×g) for 60 minutes. The translucent final pellet is harvested and combined in a small volume (20-50.0 ml) of 50.0 mM Tris.HCl buffer, pH 7.2. A 100 ul aliquot is withdrawn and the protein content of the preparation is determined by the Lowry's method (Lowry, O. H., Rosebrough, N. F., Farr, A. L. and Randall, R. J., Protein measurement with Folin phenol reagent. J. Biol. Chem., […], 265-275, 1951). The pelleted membrane is reconstituted in 50.0 mM Tris.HCl buffer containing 0.1 mM of phenylmethylsulfonyl fluoride (PMSF) to give approximately a protein concentration of 2.5 mg per ml of tissue suspension. The membrane preparation is finally aliquoted in 1.0 ml volumes and stored at -70° C. until use in the binding assays.
Binding of[^125 I](Sar^1,Ile^8)AngII
The binding of [^125 I](Sar^1 Ile^8)AngII to microsomal membranes is initiated by the addition of reconstituted membranes (1:10 vols.) in freshly made 50.0 mMTris.HCl buffer, pH 7.4 containing 0.25% heat inactivated bovine serum albumin (BSA): 80 ul membrane protein (10 to 20 ug/assay) to wells already containing 100 ul of incubatin buffer (as described above) and 20 ul [^125 I](Sar^1,Ile^8)AngII (Specific Activity 2200 Ci/mmole). Non-specific binding is measured in the presence of 1.0 uM unlabeled (Sar^1,Ile^8)AngII, added in 20 ul volume. Specific binding for [^125 I](Sar^1, Ile^8)AngII is greater than 90% In competition studies, experimental compounds are diluted in dimethylsulfoxide (DMSO) and added in 20 ul to wells before the introduction of tissue membranes. This concentration of DMSO is found to have no negative effects on the binding of [^125 I](Sar^1, Ile^8)AngII to the membranes. Assays are performed in triplicate. The wells are left undisturbed for 60 minutes at room temperature. Following incubation, all wells are harvested at once with a Brandel® Harvester especially designed for a 96 well plate (Brandel®Biomedical Research & Development Labs. Inc., Gaithersburg, Md., U.S.A.). The filter discs are washed with 10×1.0 ml of cold 0.9% NaCl to remove unbound ligand. […] This method is routinely used. The filters are removed from the filter grid and counted in a Parkard® Cobra Gamma Counter for 1 minute. (Packard Instrument Co., Downers Grove, Ill., U.S.A.). The binding data are analyzed by the non-linear interactive "LUNDON-1" program (LUNDON SOFTWARE Inc., Cleveland, Ohio U.S.A.). […]

| SMILES | IC50 [nM] |
| --- | --- |
| CCCCc1nc2cc(-c3ccccc3)nn2c(=O)n1Cc1ccc(-c2ccccc2-c2nnn[nH]2)cc1 [Example 10, 2-Butyl-7-phenyl-3-[[2'-(1H-tetrazol-5-yl)[1,1'-biphenyl]-4-yl]methyl]pyrazolo[1,5-a]-1,3,5-triazin-4(3H)-one] | 760 |
| CCCCc1nc2cc(-c3ccco3)nn2c(=O)n1Cc1ccc(-c2ccccc2-c2nnn[nH]2)cc1 [Example 11, 2-Butyl-7-(2-furanyl)-3-[[2'-(1H-tetrazol-5-yl)[1,1'-biphenyl]-4-yl]methyl]pyrazolo[1,5-a]-1,3,5-triazin-4(3H)-one] | 670 |
| CCCCc1nc2c(Br)cnn2c(=O)n1Cc1ccc(-c2ccccc2-c2nn[nH]n2)cc1 [Example 20] | 4000 |

The remaining molecules from weak to strong by IC50, led by results:

| IC50 [nM] | SMILES |
| --- | --- |
| 3000 | CCCCc1nc2ccnn2c(=O)n1Cc1ccc(-c2ccccc2-c2nn[nH]n2)cc1 [Example 21, 2-Butyl-3-[[2'-(1H-tetrazol-5-yl)-[[1,1'-biphenyl]-4-yl]methyl]-pyrazolo[1,5-a]-1,3,5-triazin-4(3H)-one potassium salt] |
| 1200 | CCCCc1nc2ccnn2c(=O)n1Cc1ccc(-c2ccccc2-c2nn[nH]n2)cc1 [Example 17, 2-Butyl-3-[[2'-(1H-tetrazol-5-yl)[1,1'-biphenyl]-4-yl]methyl]pyrazolo[1,5-a]-1,3,5-triazin-4(3H) -one] |
| 63 | CCCCc1nc2cc(-c3ccc(F)cc3)nn2c(=O)n1Cc1ccc(-c2ccccc2-c2nnn[nH]2)cc1 [Example 12, 2-Butyl-7-(4-fluorophenyl)-3-[[2'-(1H-tetrazol-5-yl)[1,1'-biphenyl]-4-yl]methyl]pyrazolo[1,5-a]-1,3,5-triazin-4(3H)-one] |
